{"source": "patent US8697747B2", "about": "“Enhancing coagulation or reducing fibrinolysis” (THe UAB Research Foundation, priority 2009, dated 2014)", "key": {"[1]": {"test_system": "pooled normal plasma", "assay": "Clot lifespan model (CLSM) thrombelastography with tPA, normal plasma", "format": "biochemical, human", "details": "100 μM", "procedure": "Pooled normal plasma (George King Bio-Medical, Overland Park, Kans.) anticoagulated with sodium citrate was utilized for experimentation. […] Factor XIII (FXIII) deficient plasma anticoagulated with sodium citrate was also obtained from the same vendor.\nPlasma Sample Composition. The final volume for all subsequently described plasma sample mixtures was 359.4 μL. Sample composition consisted of 316 μL of plasma; 10 μL of tissue factor (0.1% final concentration in 0.9% NaCl; Diagnostica Stago, Asnieres, France), 3.6 μL of dimethyl sulfoxide (DMSO) or DMSO with CORM-2 (Sigma-Aldrich, St. Louis, Mo.) or DMSO with inactivated CORM-2 (iCORM-2), 10 μL of tissue-type plasminogen activator (tPA, 580 U/μg, Genentech, Inc., San Francisco, Calif.) diluted with 10 mM potassium phosphate buffer (pH 7.4) for a final activity of 100 IU/mL, and 20 μL of 200 mM CaCl2. […] This concentration of CORM-2 was chosen because the concentration of CO released would be expected to be in the mid to lower ranges used in previously reported ex vivo, in vitro, and cell-based experiments (Motterlini et al. 2002; Megias et al. 2007; Chlopicki et al. 2006; Dong et al. 2008). […] (Motterlini et al. 2005). While CORM-2 decays slowly in DMSO, DMSO was added to the dry compound just prior to placement into the plasma mixture. The specific series of experiments are subsequently presented.\nConcentration-Response Relationships of CORM-2 and iCORM-2 with Clot Lifespan Model (CLSM) Parameters. Normal plasma was exposed to 0, 25, 50, 100 or 200 μM CORM-2 (n=4 per concentration. Additional plasma samples were exposed to 25, 50 or 100 μM iCORM-2 (n=4 per concentration). Samples underwent CLSM analyses as subsequently described.\nComparison of the Effects of CORM-2 and iCORM-2 on CLSM Parameters in Normal Plasma. Given the results of the aforementioned experiments, additional samples of normal plasma were exposed to 0 or 100 μM of CORM-2 or iCORM-2 (n=4 per additional sample condition, n=8 per condition for final analyses). Samples underwent CLSM analyses as subsequently described.\nClot Lifespan Model Analyses. As described in Example 1, plasma sample mixtures were placed in a disposable cup in a computer-controlled THROMBELASTOGRAPH® hemostasis system (Model 5000, Haemoscope Corp., Niles, Ill.), with addition of CaCl2 as the last step to initiate clotting. Data were collected until clot lysis time occurred. […] As this model involves complete fibrinolysis, TTG is equivalent to ACL, so ACL was not presented as it provides no additional information.\nStatistical Analyses. Data are presented as median (1st, 3rd quartiles). […] Nonlinear and linear analyses and curve fitting of the various CORM-2 concentrations effects on CLSM variables were performed with commercially available software (SigmaPlot 11.0, Systat Software, Inc., San Jose, Calif.). Analyses of the effects of CORM-2 and iCORM-2 on CLSM variables in normal plasma were conducted with Kruskal-Wallis one way analysis of variance on ranks, whereas Mann-Whitney rank sum tests were used to assess the effects of CORM-2 on CLSM variables in the various immunodepleted/congenitally deficient plasma types (SigmaStat 3.1, Systat Software, Inc., San Jose, Calif.). Graphical representation of the data was generated with commercially available software (SigmaPlot 11.0, Systat Software, Inc., San Jose, Calif.; CorelDRAW 12.0, Corel Corporation, Ottawa, Ontario, Canada; Origin 7.5, OriginLab Corp., Northampton, Mass.). A P value of <0.05 was considered significant."}, "[2]": {"test_system": "rat plasma", "assay": "Thrombelastography in rat plasma with or without tPA", "format": "biochemical", "procedure": "Two sets of two Sprague Dawley outbred male rats were anesthetized with ketamine and xylazine and had blood drawn via cardiac puncture, pooled in two batches, and anticoagulated 1:9 with 3.2% sodium citrate. Two male New Zealand White rabbits were sedated with acepromazine and had blood collected via central ear artery and similarly anticoagulated. Blood was centrifuged at 3000×g for 15 min, and the plasma stored in two batches until analyzed. The final volume for thrombelastographic plasma sample mixtures was 359.6 μL. Sample composition consisted of 316 μL of plasma; 10 μL of tissue factor reagent (0.1% final concentration in dH2O; Instrumentation Laboratory, Lexington, Mass.); 10 μL of dH2O or tissue-type plasminogen activator (tPA, 580 U/μg, Genentech, Inc., San Francisco, Calif.) for a final activity of 2000 U/mL for rat plasma or 300 IU/mL for rabbit plasma; 3.6 μL of dimethyl sulfoxide (DMSO) or DMSO with CORM-2 (100 μM final concentration; Sigma-Aldrich, St. Louis, Mo.); and 20 μL of 200 mM CaCl2. The tPA activity for each species was determined with pilot data to obtain reproducible lysis within 15 min. There was no appreciable lysis in rat plasma at 100, 300, or 1000 U/mL tPA. Plasma sample mixtures were placed in a disposable cup in a computer-controlled THROMBELASTOGRAPH® hemostasis system (Model 5000, Haemoscope Corp., Niles, Ill.), with addition of CaCl2 as the last step to initiate clotting. In experiments without tPA, data were collected until clot strength (maximum amplitude) was stable. In experiments with tPA, data derived from the second rabbit plasma samples were collected for 60 min whereas data obtained with the second rat plasma samples were collected for 15 min. Thrombelastographic variables were determined at 39° C. as previously described in Examples 1, 2, and 4. Data were statistically compared with unpaired Student's t-test."}, "[3]": {"details": "2000 U/ml tPA, 100 μM CORM-2, mean ± SD, n=4"}, "[4]": {"details": "2000 U/ml tPA, 100 μM vs 0 μM CORM-2"}, "[5]": {"details": "no tPA, 100 μM CORM-2, mean ± SD, n=4"}}}
{"smiles": "[C-]#[O+].[C-]#[O+].[C-]#[O+].[C-]#[O+].[C-]#[O+].[C-]#[O+].[Cl][Ru][Cl].[Cl][Ru][Cl]", "note": "[CORM-2, tricarbonyldichlororuthenium (II) dimer]", "values": [{"measurement": "delay of the onset of fibrinolysis vs samples not exposed", "setting": "[1]; tPA", "result": 258, "unit": "%"}, {"measurement": "enhancement of strength of the clot vs samples not exposed", "setting": "[1]; tPA", "result": 113, "unit": "%"}, {"measurement": "enhancement of the velocity of growth vs samples not exposed", "setting": "[1]; tPA", "result": 120, "unit": "%"}, {"measurement": "increase in CGT vs 0 μM CORM-2", "setting": "[1]; tPA", "result": 126, "unit": "%"}, {"measurement": "increase in CLS vs 0 μM CORM-2", "setting": "[1]; tPA", "result": 145, "unit": "%"}, {"measurement": "increase in CLT vs 0 μM CORM-2", "setting": "[1]; tPA", "result": 143, "unit": "%"}, {"measurement": "CGT (clot growth time)", "setting": "[1]; tPA 100 IU/mL, median, n=8", "result": 508, "unit": "s"}, {"measurement": "CLS (clot lifespan)", "setting": "[1]; tPA 100 IU/mL, median, n=8", "result": 2325, "unit": "s"}, {"measurement": "CLT (clot lysis time)", "setting": "[1]; tPA 100 IU/mL, median, n=8", "result": 1768, "unit": "s"}, {"measurement": "MRL (maximum rate of lysis)", "setting": "[1]; tPA 100 IU/mL, median, n=8", "result": "−1.9 -dynes/cm^2/sec"}, {"measurement": "MRTG (maximum rate of thrombus generation)", "setting": "[1]; tPA 100 IU/mL, median, n=8", "result": 9.7, "unit": "dynes/cm^2/sec"}, {"measurement": "TMRL (time to maximum rate of lysis)", "setting": "[1]; tPA 100 IU/mL, median, n=8", "result": 1218, "unit": "s"}, {"measurement": "TMRTG (time to maximum rate of thrombus generation)", "setting": "[1]; tPA 100 IU/mL, median, n=8", "result": 155, "unit": "s"}, {"measurement": "TTG (total thrombus generation)", "setting": "[1]; tPA 100 IU/mL, median, n=8", "result": 281, "unit": "dynes/cm^2"}, {"measurement": "ACL (area under the curve of lysis)", "setting": "[2]; [3]", "result": "0 ± 0 −dynes/cm^2"}, {"measurement": "MRL (maximum rate of lysis)", "setting": "[2]; [3]", "result": "0.0 ± 0.0 −dynes/cm^2/sec"}, {"measurement": "MRTG (maximum rate of thrombus generation)", "setting": "[2]; [3]", "result": "14.7 ± 0.6", "unit": "dynes/cm^2/sec"}, {"measurement": "TMRTG (time to maximum rate of thrombus generation)", "setting": "[2]; [3]", "result": "1.5 ± 0.1", "unit": "min"}, {"measurement": "TTG (total thrombus generation)", "setting": "[2]; [3]", "result": "230 ± 6", "unit": "dynes/cm^2"}, {"measurement": "TMRL (time to maximum rate of lysis)", "setting": "[2]; 2000 U/ml tPA, 100 μM CORM-2, n=4", "result": "No Lysis"}, {"measurement": "Percent Change of ACL", "setting": "[2]; [4]", "result": "−100", "unit": "%"}, {"measurement": "Percent Change of MRL", "setting": "[2]; [4]", "result": "−100", "unit": "%"}, {"measurement": "Percent Change of MRTG", "setting": "[2]; [4]", "result": 29, "unit": "%"}, {"measurement": "Percent Change of TMRTG", "setting": "[2]; [4]", "result": 0, "unit": "%"}, {"measurement": "Percent Change of TTG", "setting": "[2]; [4]", "result": 23, "unit": "%"}, {"measurement": "MRTG (maximum rate of thrombus generation)", "setting": "[2]; [5]", "result": "14.7 ± 0.6", "unit": "dynes/cm^2/sec"}, {"measurement": "TMRTG (time to maximum rate of thrombus generation)", "setting": "[2]; [5]", "result": "1.5 ± 0.1", "unit": "min"}, {"measurement": "TTG (total thrombus generation)", "setting": "[2]; [5]", "result": "230 ± 6", "unit": "dynes/cm^2"}, {"measurement": "Percent Change of MRTG", "setting": "[2]; no tPA, 100 μM vs 0 μM CORM-2", "result": 29, "unit": "%"}, {"measurement": "Percent Change of TMRTG", "setting": "[2]; no tPA, 100 μM vs 0 μM CORM-2", "result": 0, "unit": "%"}, {"measurement": "Percent Change of TTG", "setting": "[2]; no tPA, 100 μM vs 0 μM CORM-2", "result": 23, "unit": "%"}]}
